Consider four compounds from article PMC9728974 (Science Advances, 2022).

One assay deals with T1, PrpB (Pseudomonas aeruginosa, UniProt Q9I5E2).
T1 sequence (Q9I5E2 1-298): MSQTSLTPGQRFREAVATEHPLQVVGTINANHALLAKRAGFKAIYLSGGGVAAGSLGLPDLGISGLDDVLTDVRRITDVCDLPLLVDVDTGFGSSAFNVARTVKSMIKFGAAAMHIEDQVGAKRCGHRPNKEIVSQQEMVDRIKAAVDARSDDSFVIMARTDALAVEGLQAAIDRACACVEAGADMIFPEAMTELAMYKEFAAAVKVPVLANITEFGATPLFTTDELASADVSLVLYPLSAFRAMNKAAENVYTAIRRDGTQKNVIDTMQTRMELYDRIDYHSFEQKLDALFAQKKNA
Kind of assay: HPLC-UV, A214. It is filed as biochemical. The note with it: 1.0 mM; 1 mM tris-HCl pH 7.5.

The target of assay [1] is PmiR (PA0797), wild type (Pseudomonas aeruginosa PAO1). Nature of the assay: SEC.
Assay [2] has as its target T2, truncated PmiR protein (amino acids 15 to 232) (Pseudomonas aeruginosa, UniProt Q9I5E1).
T2 sequence (Q9I5E1 15-232): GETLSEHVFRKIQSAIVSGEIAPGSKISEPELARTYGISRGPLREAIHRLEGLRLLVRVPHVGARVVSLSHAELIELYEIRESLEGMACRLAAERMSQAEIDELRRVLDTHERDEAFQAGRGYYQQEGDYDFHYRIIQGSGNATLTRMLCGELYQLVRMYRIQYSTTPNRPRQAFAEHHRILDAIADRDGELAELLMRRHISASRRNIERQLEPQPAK
Nature of the assay: ITC. It is filed as binding.

Another assay deals with T3, PmiR (Pseudomonas aeruginosa, UniProt Q9I5E1).
T3 sequence (Q9I5E1 1-240): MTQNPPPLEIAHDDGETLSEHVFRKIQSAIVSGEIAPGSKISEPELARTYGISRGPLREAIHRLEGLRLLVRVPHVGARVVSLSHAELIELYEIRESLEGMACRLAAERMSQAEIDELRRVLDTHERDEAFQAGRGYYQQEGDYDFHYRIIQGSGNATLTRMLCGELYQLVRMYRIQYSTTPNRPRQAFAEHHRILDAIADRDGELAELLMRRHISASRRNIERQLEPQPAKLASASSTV
Nature of the assay: ITC. It is filed as binding.

On to `CC(=O)C(=O)O` [pyruvate], for which the “HPLC-UV, A214” value at PrpB is “PrpB, methylisocitrate lyase, was the last but critical enzyme to convert MIC to succinate and pyruvate”.

Consider “PmiR (PA0797), wild type (natural protein)”, for which the stoichiometry N (as a rule, a count of units in the complex or per binding partner) in assay [1] amounted to 2.

For the compound `C[C@](O)(C(=O)O)[C@H](CC(=O)O)C(=O)O` (racemic) [MIC], the figures for the Kd (in assay [2]; at PmiR) were 62.9 µM and 21.8 µM, respectively. Turning to `O=C(O)C[C@H](C(=O)O)[C@@H](O)C(=O)O` [isocitrate], binding on PmiR was put at a Kd of 64.1 µM.
